Values joined by “and” are separate entries in the source; they are usually repeats but may differ in a detail not shown here. Equal values may be shown once.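 A five-concentration, 48-hour dose response in 96-well plates underlies each endpoint, interpolated linearly between surrounding concentrations. GI50 is the concentration that inhibits growth by half. TGI: total growth inhibition.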
Tests used:
Assay in all cases: DTP human tumour cell line panel, 48 h
A549 NSCLC = test system: A549 NSCLC
MALME-3M melanoma = test system: MALME-3M melanoma
OVCAR-3 ovarian = test system: OVCAR-3 ovarian
MDA-MB-231 breast = test system: MDA-MB-231 breast
HS 578T breast = test system: HS 578T breast
COLO 205 colon = test system: COLO 205 colon
OVCAR-5 ovarian = test system: OVCAR-5 ovarian
SNB-19 CNS = test system: SNB-19 CNS
IGROV1 ovarian = test system: IGROV1 ovarian
HOP-62 NSCLC = test system: HOP-62 NSCLC

Structure (SMILES) | TGI (A549 NSCLC) [µM] | TGI (MALME-3M melanoma) [µM] | TGI (OVCAR-3 ovarian) | TGI (MDA-MB-231 breast) [µM] | TGI (HS 578T breast) | TGI (COLO 205 colon) [µM] | TGI (OVCAR-5 ovarian) [µM] | TGI (SNB-19 CNS) | TGI (IGROV1 ovarian) | TGI (HOP-62 NSCLC) [µM] | GI50 (A549 NSCLC) [µM] | GI50 (MALME-3M melanoma) [µM] | GI50 (OVCAR-3 ovarian) [µM] | GI50 (MDA-MB-231 breast) [µM] | GI50 (HS 578T breast) [µM] | GI50 (COLO 205 colon) [µM] | GI50 (OVCAR-5 ovarian) [µM] | GI50 (SNB-19 CNS) [µM] | GI50 (IGROV1 ovarian) [µM] | GI50 (HOP-62 NSCLC) [µM]
NCCSc1nc(-c2ccccc2)c(-c2ccccc2)o1 | > 100 | > 100 | > 100 µM | > 100 | > 100 µM | > 100 | > 100 | > 100 µM | > 100 µM | > 100 |  |  |  |  |  |  |  |  |  | 
O=C(Nc1ccc(-n2ccc3c(NC(=O)c4ccccc4)nccc32)cc1)Nc1ccc(Cl)c(Cl)c1 | 2.57 | 3.78 | 2.75 µM | 2.82 | 3.47 µM | 3.27 | 32.9 | 4.4 µM | 11 µM | 2.75 | 1.01 | 1.7 | 1.34 | 1.23 | 0.791 | 1.42 | 3.52 | 1.13 | 1.76 | 1.31
c1ccc2nc3c(nc2c1)sc1ccccc13 | > 100 | > 100 | > 100 µM | > 100 | > 100 µM | > 100 | > 100 | 42.2 µM | 51 µM | 73.6 |  |  |  |  |  |  |  |  |  | 
Cc1nc2sc3c(c2c(=O)[nH]1)CCCC3 | > 100 | > 100 | > 100 µM | > 100 | > 100 µM | > 100 | > 100 | > 100 µM | > 100 µM | > 100 |  |  |  |  |  |  |  |  |  | 
CC(=O)Oc1ccccc1C(=O)Nc1ncc([N+](=O)[O-])s1 | > 100 |  | 13.1 µM and 36.6 µM |  | 9.97 µM and > 37.5 µM |  | > 100 | 45.7 µM and > 100 µM | 20.8 µM and > 100 µM | > 75.6 | 2.94 | 1.48 | 2.76 | 1.95 | 1.94 | 1.83 | 4.07 | 2.05 | 2.85 | 4.45
C1=C\COCc2cc(ccc2OCCN2CCCC2)Nc2nccc(n2)-c2cccc(c2)COC/1 | 5.72 | 5.32 | 5.57 µM | 5.61 | 5.78 µM | 4.29 | 5.38 | 7.07 µM | 3.85 µM | 6.56 | 2.03 | 2.13 | 2.01 | 1.92 | 1.18 | 1.35 | 1.16 | 2.68 | 0.871 | 2.47
O=CN1CCN(CC(O)CN2CCCCC2)CC1 (stereo unspecified) | > 100 | > 100 | > 100 µM | > 100 | > 100 µM | > 100 | > 100 | > 100 µM | > 100 µM | > 100 |  |  |  |  |  |  |  |  |  | 
O=C1NC(=O)/C(=C\c2ccccc2)C2=C1CCCC2 | 51.6 | 9.11 | 8.17 µM | 26.4 | 22.8 µM | 14.6 | 12 | 22.1 µM | 32.4 µM | 25.8 | 19.7 | 2.53 | 2.71 | 13.2 | 3.46 | 3.86 | 3.53 | 10.3 | 13 | 7.31
OCc1ccn2c1[C@@H](O)CC2 | > 100 | > 100 | > 100 µM | > 100 | > 100 µM | > 100 | > 100 | > 100 µM | > 100 µM | > 100 |  |  |  |  |  |  |  |  |  | 
O=C(O)c1ccc(OCc2ccccc2)c(Cl)c1 | > 100 | > 100 | > 100 µM | > 100 | > 100 µM | > 100 | > 100 | > 100 µM | > 100 µM | > 100 |  |  |  |  |  |  |  |  |  | 
COc1cc(OC)c(/C=C/c2c3ccccc3cc[n+]2C)c(OC)c1 | > 100 | 15.4 | 9.78 µM | 31.4 | 37.5 µM | 2.95 | > 49 | 25 µM | 19.8 µM | > 33.7 | 2.13 | 2.32 | 1.23 | 3.46 | 2.43 | 0.774 | 3.04 | 1.88 | 2.32 | 3.52
COc1ccc(-n2c(C)cc(-c3ccccc3)c2C)cc1 | 38.7 | 4.53 | 10.7 µM | 3.66 | > 100 µM | 5.95 | 14.6 | > 100 µM | 34.8 µM | 67.8 | 2.88 | 1.78 | 2.61 | 1.56 | 4.58 | 2.42 | 2.48 | 8.41 | 4.23 | 6.68
CCN(Cc1ccccc1C)c1ccc(CO)c(Cl)c1 | 27.9 | 32 | 9.79 µM | 32 | 42.3 µM | 28.2 | 1.74 | 52.8 µM | 0.747 µM | 23.7 | 6.63 | 15.6 | 2.13 | 13.7 | 16 | 13.3 | 0.391 | 17.8 |  | 6.39
Cn1cc(C2=C(c3cccc(Br)c3)C(=O)NC2=O)c2ccccc21 | > 25 | > 25 | > 25 µM | > 25 | > 25 µM | > 25 | > 25 | > 25 µM | > 25 µM | > 25 | 11.1 | > 19.2 | 9.51 | 18.7 | 3.92 | 13.9 | > 25 | > 25 | 11 | 18.3
Cc1cc(C)c(/C=C2\C(=O)Nc3ccc(NC(=O)CCCCCCC(=O)NO)cc32)[nH]1 | > 100 | > 27.4 | > 78.2 µM | 60 | > 100 µM | 2.32 | > 54.1 | > 100 µM | > 100 µM | 9.83 | > 100 | 0.237 | 0.882 | 1.37 | 2.96 | 0.479 | 1.09 | 0.93 | 2.86 | 0.485

From PubChem BioAssay (NCI)
